Tests used:
[1] = molecular target: Cannabinoid receptor 1 (Rattus norvegicus, UniProt P20272); experiment: Displacement of [3H]HU243 from rat brain membrane CB1 receptor assessed as inhibition constant incubated for 90 mins; assay type: cell membranes
[2] = system: MDA-MB-231; experiment: Inhibition of cell migration in human MDA-MB-231 cells measured upto 48 hrs by transwell chamber assay; assay type: functional
[3] = molecular target: Cannabinoid receptor 1 (Mus musculus) (UniProt P47746); experiment: Antagonist activity at mouse brain membrane CB1 receptor assessed as stimulation of [35S]-GTPgammaS binding by measuring apparent dissociation constant incubated for 60 mins by liquid scintillation counting method; assay type: cell membranes; conditions: filed as antagonist
[4] = species: Rattus norvegicus; experiment: Protection against LiCl-induced nausea in rat assessed as reduction in conditioned gaping; assay type: functional; conditions: read-out: MED
[5] = system: 4T1; experiment: Cytotoxicity against mouse 4T1 cells assessed as inhibition of cell proliferation by MTT assay; assay type: functional, cell-based
[6] = system: Caco-2; experiment: Cytotoxicity against human Caco-2 cells assessed as reduction of cell viability incubated for 24 hrs by MTT assay; assay type: functional, cell-based; conditions: Caco-2, 24 h
[7] = system: DU-145; experiment: Cytotoxicity against human DU-145 cells assessed as inhibition of cell growth incubated for 72 hrs by MTT assay; assay type: functional, cell-based; conditions: DU-145, 72 h
[8] = Induction of apoptosis in gamma-irradiation induced human U87 cells by PI staining based flow cytometric analysis; assay type: functional, U-87MG ATCC; conditions: U-87 MG, light or radiation study, read-out: MEC
[9] = Reduction of triglyceride level in mouse 3T3-L1 cells incubated for 3 days by AdipoRed staining based fluorescence analysis; assay type: functional; conditions: 3T3-L1, 72 h, time 3 day, read-out: MEC
[10] = system: Rattus norvegicus; experiment: Protection against LiCl-induced nausea in ip dosed rat assessed as reduction in conditioned gaping; assay type: functional

Sequence of Cannabinoid receptor 1 (Mus musculus) (P47746 whole entry): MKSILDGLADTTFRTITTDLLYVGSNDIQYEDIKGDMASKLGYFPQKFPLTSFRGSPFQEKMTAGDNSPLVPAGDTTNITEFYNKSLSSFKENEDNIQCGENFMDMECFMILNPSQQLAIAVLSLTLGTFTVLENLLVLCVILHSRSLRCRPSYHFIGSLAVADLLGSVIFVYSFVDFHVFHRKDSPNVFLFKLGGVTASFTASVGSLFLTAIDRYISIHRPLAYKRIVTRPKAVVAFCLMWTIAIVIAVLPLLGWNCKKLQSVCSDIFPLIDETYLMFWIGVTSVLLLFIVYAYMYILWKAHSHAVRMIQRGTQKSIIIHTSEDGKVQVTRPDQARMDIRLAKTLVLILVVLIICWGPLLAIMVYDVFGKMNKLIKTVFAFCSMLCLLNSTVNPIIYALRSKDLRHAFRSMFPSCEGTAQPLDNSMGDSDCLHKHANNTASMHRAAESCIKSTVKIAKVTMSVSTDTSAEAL
Sequence of Cannabinoid receptor 1 (P20272 whole entry): as the sequence (P47746 whole entry) above, with D95E counted along it

C=C(C)[C@@H]1CCC(C)C[C@H]1c1c(O)cc(CCCCC)cc1O (stereo partly specified)
Ki [1]: 145 nM

C=C(C)[C@@H]1CCC(C)=C[C@H]1c1c(O)cc(CCCCC)c(C(=O)O)c1O [CANNABIDIOLIC ACID]
MIC [2]: ≤ 5 µM | Kb [3]: 1800 nM | minimal effective dose [4]: 2.5 µg/kg

C=C(C)[C@@H]1CCC(C)=C[C@H]1c1c(O)cc(CCCCC)cc1O [CANNABIDIOL]
IC50 [5]: 1800 nM | IC50 [6]: 3730 nM | IC50 [7]: 5400 nM | minimal effective concentration [8]: ≤ 5 µM | minimal effective concentration [9]: ≤ 5 µM

C=C(C)[C@@H]1CCC(C)=C[C@H]1c1c(O)cc(CCC)cc1O [CANNABIDIVARIN]
IC50 [6]: 10100 nM | MED [10]: 200000 µg/kg

— ChEMBL document CHEMBL5244233 (Eur J Med Chem, 2020)
